# Data from ChEMBL document CHEMBL6109153, “Development of Membrane-Targeting Osthole Derivatives Containing Pyridinium Quaternary Ammonium Moieties with Potent Anti-Methicillin-Resistant Staphylococcus aureus Properties” (J Med Chem, 2025).
# Active and inactive are the calls of the source. The calls are words filed in the database; no cut-off is given here.
# Experiments:
# Staphylococcus aureus [1] = assay: Induction of cell permeability in methicillin-resistant Staphylococcus aureus M11 assessed as fold increase in fluorescence intensity at 32 times MIC by SYTOX Green dye based analysis relative to control; type: functional
# Staphylococcus aureus [2] = assay: Antibacterial activity against methicillin-resistant Staphylococcus aureus M11 infected in BALB/c mouse model of Sepsis assessed as reduction in bacterial load in skin tissues at 4 mg/kg measured after 24 hrs; type: functional
# Staphylococcus aureus [3] = assay: Antibacterial activity against methicillin-resistant Staphylococcus aureus M11 infected in BALB/c mouse model of Sepsis assessed as reduction in hepatic sinusoidal dilation at 10 mg/kg, ip measured after 48 hrs; type: functional, organism-based
# [4] = Toxicity in BALB/c mouse model of Sepsis infected with methicillin-resistant Staphylococcus aureus M11 assessed as survival rate at 15 mg/kg, ip measured after 7 days; type: organism-based; conditions: in vivo, 168 h, time 7 day
# Staphylococcus aureus [5] = assay: Antibacterial activity against methicillin-resistant Staphylococcus aureus M11 infected in BALB/c mouse model of Sepsis assessed as reduction in abscess size on back at 4 mg/kg measured after 24 hrs; type: functional, organism-based
# Staphylococcus aureus [6] = assay: Antibacterial activity against methicillin-resistant Staphylococcus aureus M11 infected in BALB/c mouse model of Sepsis assessed as reduction in bacterial load in skin tissues at 8 mg/kg measured after 24 hrs; type: functional
# Staphylococcus aureus [7] = assay: Antibacterial activity against methicillin-resistant Staphylococcus aureus M11 infected in BALB/c mouse model of Sepsis assessed as reduction in bacterial load in liver at 20 mg/kg, ip measured after 48 hrs; type: functional
# Staphylococcus aureus [8] = assay: Antibacterial activity against methicillin-resistant Staphylococcus aureus M11 infected in BALB/c mouse model of Sepsis assessed as reduction in redness in inner epidermal abscesses at 4 mg/kg measured after 24 hrs; type: functional, organism-based
# Staphylococcus aureus [9] = assay: Antibacterial activity against methicillin-resistant Staphylococcus aureus M11 infected in BALB/c mouse model of Sepsis assessed as vacuolar degeneration in liver cells at 10 mg/kg, ip measured after 48 hrs; type: functional, organism-based
# Staphylococcus aureus [10] = assay: Induction of bacterial eradication in methicillin-resistant Staphylococcus aureus M11 at 8 times MIC incubated for 8 hrs by time-kill assay; type: functional, organism-based
# Staphylococcus aureus [11] = assay: Antibacterial activity against methicillin-resistant Staphylococcus aureus M11 infected in BALB/c mouse model of Sepsis assessed as reduction in inflammatory cell infiltration in skin tissues at 4 to 8 mg/kg measured after 24 hrs by H and E staining based analysis; type: functional, organism-based; conditions: dose 4-8 mg/kg
# Staphylococcus aureus [12] = assay: Antibacterial activity against methicillin-resistant Staphylococcus aureus M11 infected in BALB/c mouse model of Sepsis assessed as reduction in swelling in inner epidermal abscesses at 4 mg/kg measured after 24 hrs; type: functional, organism-based
# Staphylococcus aureus [13] = assay: Antibacterial activity against methicillin-resistant Staphylococcus aureus M11 infected in BALB/c mouse model of Sepsis assessed as reduction in bacterial load in spleen at 20 mg/kg, ip measured after 48 hrs; type: functional
# Staphylococcus aureus [14] = assay: Antibacterial activity against methicillin-resistant Staphylococcus aureus M11 infected in BALB/c mouse model of Sepsis assessed as reduction in bacterial load in kidney at 20 mg/kg, ip measured after 48 hrs; type: functional
# [15] = Toxicity in BALB/c mouse model of Sepsis infected with methicillin-resistant Staphylococcus aureus M11 assessed as survival rate at 5 mg/kg, ip measured after 7 days; type: organism-based; conditions: in vivo, 168 h, time 7 day
# [16] = Toxicity in BALB/c mouse model of Sepsis infected with methicillin-resistant Staphylococcus aureus M11 assessed as survival rate at 10 mg/kg, ip measured after 7 days; type: organism-based; conditions: in vivo, 168 h, time 7 day
# Staphylococcus aureus [17] = assay: Antibacterial activity against methicillin-resistant Staphylococcus aureus M11 infected in BALB/c mouse model of Sepsis assessed as reduction in bacterial count in skin tissues at 4 mg/kg measured after 24 hrs relative to control; type: functional; set-up: scale not given: the % may be the effect or the level left
# Staphylococcus aureus [18] = assay: Antibacterial activity against methicillin-resistant Staphylococcus aureus M11 infected in BALB/c mouse model of Sepsis assessed as reduction in hepatic congestion at 10 mg/kg, ip measured after 48 hrs; type: functional, organism-based
# Staphylococcus aureus [19] = assay: Antibacterial activity against methicillin-resistant Staphylococcus aureus M11 infected in BALB/c mouse model of Sepsis assessed as reduction in bacterial count in skin tissues at 8 mg/kg measured after 24 hrs relative to control; type: functional; set-up: scale not given: the % may be the effect or the level left
# Staphylococcus aureus [20] = assay: Antibacterial activity against methicillin-resistant Staphylococcus aureus M17 incubated for 16 to 20 hrs by broth microdilution method; type: functional; conditions: time 16-20 hrs
# Staphylococcus aureus [21] = assay: Antibacterial activity against methicillin-resistant Staphylococcus aureus M22 incubated for 16 to 20 hrs by broth microdilution method; type: functional; conditions: time 16-20 hrs
# Staphylococcus aureus [22] = assay: Antibacterial activity against Staphylococcus aureus ATCC 29213 incubated for 16 to 20 hrs by broth microdilution method; type: functional; conditions: time 16-20 hrs
# Escherichia coli = assay: Antibacterial activity against Escherichia coli ATCC 25922 incubated for 16 to 20 hrs by broth microdilution method; type: functional; conditions: time 16-20 hrs
# Staphylococcus aureus [23] = assay: Antibacterial activity against methicillin-resistant Staphylococcus aureus M23 incubated for 16 to 20 hrs by broth microdilution method; type: functional; conditions: time 16-20 hrs
# [24] = Hemolytic activity against sheep erythrocytes; type: toxicity, cell-based, Ovis aries, Erythrocyte
# Staphylococcus aureus [25] = assay: Antibacterial activity against methicillin-resistant Staphylococcus aureus M12 incubated for 16 to 20 hrs by broth microdilution method; type: functional; conditions: time 16-20 hrs
# Staphylococcus aureus [26] = assay: Antibacterial activity against methicillin-resistant Staphylococcus aureus M16 incubated for 16 to 20 hrs by broth microdilution method; type: functional; conditions: time 16-20 hrs
# Staphylococcus aureus [27] = assay: Antibacterial activity against methicillin-resistant Staphylococcus aureus M13 incubated for 16 to 20 hrs by broth microdilution method; type: functional; conditions: time 16-20 hrs
# Staphylococcus aureus [28] = assay: Antibacterial activity against methicillin-resistant Staphylococcus aureus M14 incubated for 16 to 20 hrs by broth microdilution method; type: functional; conditions: time 16-20 hrs
# Staphylococcus aureus [29] = assay: Antibacterial activity against methicillin-resistant Staphylococcus aureus M20 incubated for 16 to 20 hrs by broth microdilution method; type: functional; conditions: time 16-20 hrs
# Staphylococcus aureus [30] = assay: Antibacterial activity against methicillin-resistant Staphylococcus aureus M11 incubated for 16 to 20 hrs by broth microdilution method; type: functional; conditions: time 16-20 hrs
# Staphylococcus aureus [31] = assay: Antibacterial activity against methicillin-resistant Staphylococcus aureus M21 incubated for 16 to 20 hrs by broth microdilution method; type: functional; conditions: time 16-20 hrs
# Staphylococcus aureus [32] = assay: Induction of resistance development in Staphylococcus aureus ATCC 29213 assessed as fold change in MIC at 0.5 times MIC measured after 18 passages by broth microdilution method; type: functional
Compound,MIC (Staphylococcus aureus [20]),MIC (Staphylococcus aureus [21]),MIC (Staphylococcus aureus [22]),MIC (Escherichia coli),MIC (Staphylococcus aureus [23]),HC50 [24],MIC (Staphylococcus aureus [25]),MIC (Staphylococcus aureus [26]),MIC (Staphylococcus aureus [27]),MIC (Staphylococcus aureus [28]),MIC (Staphylococcus aureus [29]),MIC (Staphylococcus aureus [30]),MIC (Staphylococcus aureus [31]),other results
CC[C@H](C)[C@H](NC(=O)CN)C(=O)NCC(=O)N[C@@H](C)C(=O)N[C@H](C(=O)N[C@@H](CC(C)C)C(=O)N[C@@H](CCCCN)C(=O)N[C@H](C(=O)N[C@@H](CC(C)C)C(=O)N[C@H](C(=O)N[C@H](C(=O)NCC(=O)N[C@@H](CC(C)C)C(=O)N1CCC[C@H]1C(=O)N[C@@H](C)C(=O)N[C@@H](CC(C)C)C(=O)N[C@H](C(=O)N[C@@H](CO)C(=O)N[C@@H](Cc1c[nH]c2ccccc12)C(=O)N[C@H](C(=O)N[C@@H](CCCCN)C(=O)N[C@@H](CCCNC(=N)N)C(=O)N[C@@H](CCCCN)C(=O)N[C@@H](CCCNC(=N)N)C(=O)N[C@@H](CCC(N)=O)C(=O)N[C@@H](CCC(N)=O)C(N)=O)[C@@H](C)CC)[C@@H](C)CC)[C@@H](C)O)[C@@H](C)O)C(C)C)C(C)C [MELITTIN],,,,,,,,,,,,,,fold change (FC) (Staphylococcus aureus [1]): ~8
CN[C@H](CC(C)C)C(=O)N[C@H]1C(=O)N[C@@H](CC(N)=O)C(=O)N[C@H]2C(=O)N[C@H]3C(=O)N[C@H](C(=O)N[C@H](C(=O)O)c4cc(O)cc(O)c4-c4cc3ccc4O)[C@H](O)c3ccc(c(Cl)c3)Oc3cc2cc(c3O[C@@H]2O[C@H](CO)[C@@H](O)[C@H](O)[C@H]2O[C@H]2C[C@](C)(N)[C@H](O)[C@H](C)O2)Oc2ccc(cc2Cl)[C@H]1O [VANCOMYCIN],,,,,,,,,,,,,,"Activity (Staphylococcus aureus [2]): 1.578 log10CFU/g; Activity (Staphylococcus aureus [3]): inactive; Survival [4]: 100%; Activity (Staphylococcus aureus [5]): Active; Activity (Staphylococcus aureus [6]): 3.96 log10CFU/g; Activity (Staphylococcus aureus [7]): 3.54 log10CFU/ml; Activity (Staphylococcus aureus [8]): Active; Activity (Staphylococcus aureus [9]): Active; Activity (Staphylococcus aureus [10]): Not active; Compound Inhibited Bacterial Growth But Still Showed Surviving Bacteria Within The Detection Range After 8 H, Indicating Incomplete Bacterial Eradication; Activity (Staphylococcus aureus [11]): Active; Activity (Staphylococcus aureus [12]): Active; Activity (Staphylococcus aureus [13]): 3.88 log10CFU/ml; Activity (Staphylococcus aureus [14]): 3.92 log10CFU/ml; Survival [15]: 33.3%; Survival [16]: 77.8%; Activity (Staphylococcus aureus [17]): 97.24%; Activity (Staphylococcus aureus [18]): inactive; Activity (Staphylococcus aureus [19]): 99.989%"
CC(C)=CCc1c(OCCCCCSc2cc[n+](CC(=O)N(CC(C)C)CC(C)C)cc2)ccc2ccc(=O)oc12.[Br-],2 µg/mL,2 µg/mL,1 µg/mL,> 128 µg/mL,8 µg/mL,> 160 µg/mL,8 µg/mL,16 µg/mL,8 µg/mL,8 µg/mL,8 µg/mL,8 µg/mL,2 µg/mL,
CCCN(CCC)C(=O)C[n+]1ccc(SCCCCCOc2ccc3ccc(=O)oc3c2CC=C(C)C)cc1.[Br-],2 µg/mL,1 µg/mL,1 µg/mL,> 128 µg/mL,2 µg/mL,> 160 µg/mL,2 µg/mL,1 µg/mL,4 µg/mL,1 µg/mL,1 µg/mL,1 µg/mL,1 µg/mL,
CCn1cc(C(=O)O)c(=O)c2cc(F)c(N3CCNCC3)cc21 [NORFLOXACIN],,,,,,,,,,,,,,fold change (FC) (Staphylococcus aureus [32]): 128
CC(C)=CCc1c(OCCCCCSc2cc[n+](CC(=O)N(C(C)C)C(C)C)cc2)ccc2ccc(=O)oc12.[Br-],2 µg/mL,2 µg/mL,2 µg/mL,> 128 µg/mL,2 µg/mL,> 160 µg/mL,4 µg/mL,4 µg/mL,4 µg/mL,2 µg/mL,2 µg/mL,1 µg/mL,2 µg/mL,
CCCCCCNC(=O)C[n+]1ccc(SCCCCOc2ccc3ccc(=O)oc3c2CC=C(C)C)cc1.[Br-],1 µg/mL,2 µg/mL,1 µg/mL,32 µg/mL,2 µg/mL,> 160 µg/mL,2 µg/mL,2 µg/mL,2 µg/mL,1 µg/mL,1 µg/mL,1 µg/mL,2 µg/mL,
CC(C)=CCc1c(OCCCSc2cc[n+](CC(=O)N(C)c3ccccc3)cc2)ccc2ccc(=O)oc12.[Br-],8 µg/mL,8 µg/mL,8 µg/mL,> 128 µg/mL,8 µg/mL,> 160 µg/mL,16 µg/mL,8 µg/mL,16 µg/mL,4 µg/mL,4 µg/mL,4 µg/mL,8 µg/mL,
CCCNC(=O)C[n+]1ccc(SCCCOc2ccc3ccc(=O)oc3c2CC=C(C)C)cc1.[Br-],16 µg/mL,8 µg/mL,8 µg/mL,> 128 µg/mL,8 µg/mL,> 160 µg/mL,16 µg/mL,8 µg/mL,32 µg/mL,8 µg/mL,8 µg/mL,8 µg/mL,8 µg/mL,
CC(C)=CCc1c(OCCCSc2cc[n+](CC(=O)N3CCOCC3)cc2)ccc2ccc(=O)oc12.[Br-],64 µg/mL,32 µg/mL,128 µg/mL,> 128 µg/mL,128 µg/mL,> 160 µg/mL,128 µg/mL,64 µg/mL,128 µg/mL,64 µg/mL,64 µg/mL,32 µg/mL,32 µg/mL,
